In patent publication US7122360B1, “Polypeptides, polynucleotides and uses thereof” (University of Dundee, priority 1998, dated 2006):
Peptide text beside a SMILES is read from it.

Experiments:
[1] = target: T1, MAPKAP-K1a (Rattus norvegicus, UniProt Q63531); assay: Substrate phosphorylation kinetics with GST-MAPKAP-K1a; format: biochemical
T1 construct: made in house; host or cells: human embryonic kidney 293 cells, TPA-stimulated
Method: (§1) FIG. 8. […] (A) Comparison of the substrate specificities of MSK1, MAPKAP-K1a and MAPKAP-K1b towards the indicated peptides and CREB. Phosphorylation and analysis was carried out as described in Materials and Methods. The standard errors for all reported kinetic constants were within <+20% (SEM), and the data is reported as mean values for 2 independent experiments. The Vmax values are reported as a percentage of the value obtained using Crosstide ([…], peptide 1 (SEQ ID NO:16)) as a substrate. The peptide […] (SEQ ID NO:18) corresponding to residues 126–136 of CREB is termed CREBtide. The serine residues shown in bold correspond to the phosphorylated serine residues on the peptides. […] (B) GST-MSK1 (solid bars), GST-MAPKAPK-1a (open bars), MAPKAP-K-1b (speckled bars) or GST-MAPKAP-K2 (diagonal bars) were assayed with the indicated substrates. […] The phosphorylation of CREB by MAPKAP-K2 shown in the figure is corrected to show only the contribution of Ser133 phosphorylation to the total incorporation of phosphate into CREB. […]
(§2) Phosphorylation of CREB and HSP27 by MSK1 and MAPKAP-K1a/b (see FIG. 8). MSK1 and MAPKAP-K1a expressed as GST fusion proteins were purified from TPA stimulated 293 cells (FIG. 3) and MAPKAP-K1b was purified from rabbit skeletal muscle (Sutherland et al., 1993). […] The ^32P-radioactivity incorporated was then determined by Cerenkov counting. […]

[2] = target: T2, MAPKAP-K1b (Oryctolagus cuniculus, UniProt A0A5F9C4L9); assay: Substrate phosphorylation kinetics with MAPKAP-K1b; format: biochemical, rabbit
T2 construct: MAPKAP-K1b was purified from rabbit skeletal muscle (Sutherland et al., 1993); from tissue; host or cells: rabbit skeletal muscle
Method: as §1, §2

[3] = target: MSK1 (Homo sapiens, UniProt O75582); assay: Substrate phosphorylation kinetics with GST-MSK1; format: biochemical; parameters: generate a full length FLAG-MSK 1 construct in the pCMV5 mammalian expression; made in house; host or cells: human embryonic kidney 293 cells (TPA-stimulated before lysis)
Method: FIG. 8. MSK1 phosphorylates CREB at Ser133. (A) Comparison of the substrate specificities of MSK1, MAPKAP-K1a and MAPKAP-K1b towards the indicated peptides and CREB. Phosphorylation and analysis was carried out as described in Materials and Methods. The standard errors for all reported kinetic constants were within <+20% (SEM), and the data is reported as mean values for 2 independent experiments. The Vmax values are reported as a percentage of the value obtained using Crosstide ([…], peptide 1 (SEQ ID NO:16)) as a substrate. The peptide […] (SEQ ID NO:18) corresponding to residues 126–136 of CREB is termed CREBtide. The serine residues shown in bold correspond to the phosphorylated serine residues on the peptides. […] 75% of the radioactivity applied to the column was recovered from the major ^32P-containing peptide at 13% acetonitrile (the remainder of the radioactivity eluted as numerous minor peaks). […]
Phosphorylation of CREB and HSP27 by MSK1 and MAPKAP-K1a/b (see FIG. 8). MSK1 and MAPKAP-K1a expressed as GST fusion proteins were purified from TPA stimulated 293 cells (FIG. 3) and MAPKAP-K1b was purified from rabbit skeletal muscle (Sutherland et al., 1993). […] The ^32P-radioactivity incorporated was then determined by Cerenkov counting. […] The supernatant, containing 95% of the ^32P-radioactivity, was chromatographed on a Vydac C18 column as described in the legend to FIG. 8. […]

[4] = system: MSK1; assay: Activation of transfected Flag-MSK1 in 293 cells; format: cell-based, human; conditions: stimulation with the agonist
Method: FIG. 6. Effect of mutation of MSK1 on activation by TPA and UV in 293 cells. 293 cells were transiently transfected with DNA constructs expressing Flag epitope tagged wild type MSK1, N-terminal (NT) “kinase dead” MSK1 and C-terminal (CT) “kinase dead” MSK1. […] The cells were lysed and the MSK1 was immunoprecipitated from the lysates and assayed with Crosstide.
Transfection of MSK1 into 293 cells. 293 cells were cultured on 10 cm diameter dishes and transfected with the pCMV5 vector encoding the Flag epitope tagged MSK1 constructs using a modified calcium phosphate method (Alessi et al., 1996b). 24 h post-transfection, the cells were deprived of serum for 16 h, stimulated with TPA or exposed to UV radiation, the cells were then lysed in 1 ml of ice cold Buffer A, centrifuged at 13,000×g for 5 min, and the Flag tagged MSK1 protein immunoprecipitated from aliquots of lysate (containing 25 μg protein) using 2 μg of FLAG antibody coupled to 5 (1 of Protein G-Sepharose.
Immunoprecipitates were incubated, washed and assayed for MSK1 activity as described above.

[5] = system: MAPKAP-K1a; assay: Activation of overexpressed MAPKAP-K1a in 293 cells; format: cell-based, human; conditions: TPA stimulation, data not shown
Source text: FIG. 7. MSK1 is mainly localised in the nucleus of cells and MAPKAP-K1a in the cytosol. […] Data is from three independent experiments. For MSK1 controls n=9, 9 and 14; for TPA n+10, 11 and 15. For MAPKAP-K1a controls total n=22; for TPA total n=9 (excluding cells with extensive clumps of immunoreactive material in the cytoplasm). Bars represent standard error of the mean calculated according to Cochran (1953). (C) Selected samples for MSK1 (C, unstimulated and D, TPA) and for MAPKAP-K1a (E, unstimulated) are shown to illustrate structures and labelling distributions. Bar is 500 nm.
MSK1 is localised in nuclei and MAPKAP-K1a in the cytoplasm. The subcellular location of wild type MSK1 that was overexpressed in 293 cells was investigated by quantitative immunoelectron microscopy (FIG. 7). MSK1 was largely located in the nucleus of unstimulated cells. The density of MSK1 in the nuclear compartment was 12 to 30-fold higher than in the cytoplasm (FIGS. 7A and 7C). […] Consistent with this observation MAPKAP-K1a, when overexpressed in cells, was largely localised in the cytoplasm (FIG. 7B). Moreover, no significant translocation of MAPKAP-K1a to the nucleus was observed following TPA stimulation of cells (FIGS. 7B and 7E) which induces 100-fold activation of this kinase (data not shown).

[6] = system: MAPKAP-K1; assay: NGF-induced activation of MAPKAP-K1 in PC12 cells

MSK1 (Homo sapiens, UniProt O75582), sequence (O75582 whole entry, the tested form may be a part): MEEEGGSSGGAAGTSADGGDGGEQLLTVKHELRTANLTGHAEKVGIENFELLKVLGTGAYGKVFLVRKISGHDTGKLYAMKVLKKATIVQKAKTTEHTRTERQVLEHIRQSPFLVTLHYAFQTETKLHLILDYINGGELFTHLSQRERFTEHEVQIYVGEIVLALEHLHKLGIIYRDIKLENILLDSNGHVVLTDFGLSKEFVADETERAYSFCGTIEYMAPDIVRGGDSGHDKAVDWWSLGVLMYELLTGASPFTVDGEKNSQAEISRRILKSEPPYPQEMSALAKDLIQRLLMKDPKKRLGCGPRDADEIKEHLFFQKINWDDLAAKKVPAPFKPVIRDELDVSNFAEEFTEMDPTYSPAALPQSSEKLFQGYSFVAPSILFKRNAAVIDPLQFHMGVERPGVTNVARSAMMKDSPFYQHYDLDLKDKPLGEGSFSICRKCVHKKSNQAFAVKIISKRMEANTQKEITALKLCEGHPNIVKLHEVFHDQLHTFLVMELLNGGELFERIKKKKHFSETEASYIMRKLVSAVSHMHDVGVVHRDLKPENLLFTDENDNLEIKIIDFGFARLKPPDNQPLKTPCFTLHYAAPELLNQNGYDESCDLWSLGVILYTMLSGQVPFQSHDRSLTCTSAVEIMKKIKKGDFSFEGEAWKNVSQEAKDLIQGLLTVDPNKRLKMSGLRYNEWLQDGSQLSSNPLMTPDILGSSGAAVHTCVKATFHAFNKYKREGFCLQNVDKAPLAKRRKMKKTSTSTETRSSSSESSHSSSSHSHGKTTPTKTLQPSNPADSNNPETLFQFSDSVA
T1 sequence (Q63531 whole entry): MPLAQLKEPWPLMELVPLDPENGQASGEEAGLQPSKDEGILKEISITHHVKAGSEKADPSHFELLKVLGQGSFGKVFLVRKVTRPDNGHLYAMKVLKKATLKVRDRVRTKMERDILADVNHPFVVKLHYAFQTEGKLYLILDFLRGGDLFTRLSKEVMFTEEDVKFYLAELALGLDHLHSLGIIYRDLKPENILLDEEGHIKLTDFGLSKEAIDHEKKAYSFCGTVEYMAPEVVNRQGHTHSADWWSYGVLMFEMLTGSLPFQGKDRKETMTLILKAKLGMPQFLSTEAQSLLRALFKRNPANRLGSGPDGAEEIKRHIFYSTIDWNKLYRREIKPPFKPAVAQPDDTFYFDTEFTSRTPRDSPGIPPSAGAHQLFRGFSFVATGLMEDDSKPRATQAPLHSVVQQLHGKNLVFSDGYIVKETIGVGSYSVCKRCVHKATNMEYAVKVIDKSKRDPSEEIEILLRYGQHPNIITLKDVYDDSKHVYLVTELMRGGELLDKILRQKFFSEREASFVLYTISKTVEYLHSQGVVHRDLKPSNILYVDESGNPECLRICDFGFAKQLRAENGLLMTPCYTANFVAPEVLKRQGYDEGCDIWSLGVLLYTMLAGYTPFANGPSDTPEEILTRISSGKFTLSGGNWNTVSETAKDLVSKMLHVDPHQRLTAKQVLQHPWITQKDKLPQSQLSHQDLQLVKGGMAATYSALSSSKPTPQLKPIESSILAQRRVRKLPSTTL
T2 sequence (A0A5F9C4L9 1-740): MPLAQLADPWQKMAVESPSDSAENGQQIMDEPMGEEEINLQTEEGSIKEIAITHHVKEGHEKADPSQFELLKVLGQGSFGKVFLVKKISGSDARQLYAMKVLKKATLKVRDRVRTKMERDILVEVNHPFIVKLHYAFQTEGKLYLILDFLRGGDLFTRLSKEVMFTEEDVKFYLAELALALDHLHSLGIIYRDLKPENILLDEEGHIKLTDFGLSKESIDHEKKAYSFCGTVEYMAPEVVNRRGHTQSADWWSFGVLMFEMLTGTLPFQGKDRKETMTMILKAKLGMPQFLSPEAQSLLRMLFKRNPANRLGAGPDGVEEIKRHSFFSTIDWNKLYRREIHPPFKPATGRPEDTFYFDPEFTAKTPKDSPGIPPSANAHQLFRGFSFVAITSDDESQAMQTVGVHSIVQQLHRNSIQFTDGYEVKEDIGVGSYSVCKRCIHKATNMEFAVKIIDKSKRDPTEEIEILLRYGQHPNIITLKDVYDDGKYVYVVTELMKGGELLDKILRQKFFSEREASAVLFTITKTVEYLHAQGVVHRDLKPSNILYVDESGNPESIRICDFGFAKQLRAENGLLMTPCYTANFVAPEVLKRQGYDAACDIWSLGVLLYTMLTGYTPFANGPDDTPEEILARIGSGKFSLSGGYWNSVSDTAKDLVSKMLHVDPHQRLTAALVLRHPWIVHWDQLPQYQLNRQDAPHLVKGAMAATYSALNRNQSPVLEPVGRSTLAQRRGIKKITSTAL

Compound: CC(C)C[C@H](NC(=O)[C@@H](NC(=O)[C@H](CCCNC(=N)N)NC(=O)[C@H](CC(N)=O)NC(=O)[C@H](CCCNC(=N)N)NC(=O)[C@H](CCCCN)NC(=O)[C@@H](N)CCCCN)[C@@H](C)O)C(=O)N[C@@H](CO)C(=O)N[C@H](C(=O)N[C@@H](C)C(=O)O)C(C)C (H-KKRNRTLSVA-OH)
- Km for phosphorylation by MAPKAP-K1a [1]: almost identical Km and Vmax values as for Crosstide
- Km for phosphorylation by MAPKAP-K1b [2]: almost identical Km and Vmax values as for Crosstide

Compound: CC[C@H](C)[C@H](NC(=O)[C@@H](N)CCC(=O)O)C(=O)N[C@@H](CC(C)C)C(=O)N[C@@H](CO)C(=O)N[C@@H](CCCNC(=N)N)C(=O)N[C@@H](CCCNC(=N)N)C(=O)N1CCC[C@H]1C(=O)N[C@@H](CO)C(=O)N[C@@H](Cc1ccc(O)cc1)C(=O)N[C@@H](CCCNC(=N)N)C(=O)N[C@@H](CCCCN)C(=O)O [CREBtide] (H-EILSRRPSYRK-OH)
- Km [3]: < 0.1 µM

Compound: C[C@H](NC(=O)[C@H](Cc1ccccc1)NC(=O)[C@H](CO)NC(=O)[C@H](CO)NC(=O)[C@@H](NC(=O)[C@H](CCCNC(=N)N)NC(=O)[C@@H]1CCCN1C(=O)[C@H](CCCNC(=N)N)NC(=O)CN)[C@@H](C)O)C(=O)N[C@@H](CCC(=O)O)C(=O)NCC(=O)O [Crosstide] (H-GRPRTSSFAEG-OH)
- Km [1]: 2 to 3 µM
- Km [2]: 2 to 3 µM
- Km [3]: 2 to 3 µM

Compound: CCCCCCCCCCCCCC(=O)O[C@@H]1[C@@H](C)[C@@]2(O)[C@@H](C=C(CO)C[C@]3(O)C(=O)C(C)=C[C@@H]23)[C@@H]2C(C)(C)[C@]12OC(C)=O [TPA, 12-O-tetradecanoylphorbol 13-acetate]
- activation of transfected wild type MSK1 [4]: 200 fold
- activation of overexpressed MAPKAP-K1a [5]: 100 fold

Compound: NGF: nerve growth factor used as cell stimulus
- activation of MAPKAP-K1 by NGF [6]: five-fold
